Structures are written as SMILES.

Consider two molecules from ChEMBL document CHEMBL1127384, “Design, synthesis, and conformational analysis of a novel macrocyclic HIV-protease inhibitor” (J Med Chem, 1994).

In the assay the target is Human immunodeficiency virus type 1 protease (Human immunodeficiency virus 1, UniProt Q72874). Kind of assay: In vitro ability to inhibit HIV-protease.

On to `CC(C)[C@H](NC(=O)OCc1ccccc1)C(=O)N[C@@H](Cc1ccc(OCc2ccccc2)cc1)C(=O)C(F)(F)C(=O)NCc1ccccc1`, for which the Ki (commonly the dissociation constant of the complex between target and ligand, obtained from inhibition or displacement) was 5 nM. In other words, the single-digit nanomolar range.
As to `CC(C)[C@@H]1NC(=O)CNC(=O)COc2ccc(cc2)C[C@@H](C(=O)C(F)(F)C(=O)NCc2ccccc2)NC1=O`, the affinity, expressed as Ki, was 20 nM.
